From patent publication US20060121449A1, “Method for selection of compounds which inhibit clonal cell growth and use thereof” (priority 2002, published 2006) come the findings set out here.

Experiment [1] concerns polyoma virus transformed BHK21/c13 cells, line S100T1. As to the kind of experiment: Collocation inhibition test: clonal growth in sparsely and densely seeded areas of a cell density gradient of S100T1 cells in soft agar (Exp 13, 17, 19-26).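 On Clonal growth, H high density area of cell gradient, High: grades rise with clonal growth.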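 On Clonal growth, H high density area of cell gradient, Low: grades rise with clonal growth.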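 On Clonal growth, H high density area of cell gradient, Medium: grades rise with clonal growth.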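 On Clonal growth, L low density area of cell gradient, High: grades rise with clonal growth and minus or plus-minus means none.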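 On Clonal growth, L low density area of cell gradient, Low: grades rise with clonal growth and minus or plus-minus means none.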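 On Clonal growth, L low density area of cell gradient, Medium: grades rise with clonal growth and minus or plus-minus means none.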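 On all read-outs here: soft agar cultures in 24-well plates with a cell density gradient in the top layer, compounds applied from DMSO stocks, clonal growth scored in sparse versus dense areas.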 As to conditions: for Significance: Exp 17 day 14; for Clonal growth, H high density area of cell gradient, High / Clonal growth, L low density area of cell gradient, High / Clonal growth, H high density area of cell gradient, Low / Clonal growth, L low density area of cell gradient, Low / Clonal growth, H high density area of cell gradient, Medium / Clonal growth, L low density area of cell gradient, Medium / Effect on cell cloning in soft agar: preliminary results; for Clonal growth, H high density area of cell gradient, High / Clonal growth, L low density area of cell gradient, High / Clonal growth, H high density area of cell gradient, Low / Clonal growth, L low density area of cell gradient, Low / Clonal growth, H high density area of cell gradient, Medium / Clonal growth, L low density area of cell gradient, Medium: Exp 13-18, 21-26; for Effect on cell cloning in soft agar: in words; for Resulting clonal growth of treated cultures: Experiment 26, read after 24 hours.

Experiment [2] has as its system polyoma virus transformed BHK21/c13 cells, clone S100T1. As to the kind of experiment: Clonal test: clonal growth of S100T1 cells in soft agar (Exp 2, 4, 6, 15, 16). The format is cell-based, hamster. As to conditions: Exp 15; 32000 S100T1 cells/well. How it is done: The clonal test comprises: • 1. seeding cells in soft agar optionally containing growth factor(s); • 2. handling or incubation of special gels (e.g. ultra low gelling temperature agarose), including the production of cell density gradients. • 3. incubating in suitable temperature and atmosphere and; • 4. regular monitoring of the cells and development of clones.
The clonal test can be directed in fluid medium or in soft agar medium. Usually only transformed cells will form clones in soft agar.
After seeding and mixing, the tubes were placed in the refrigerator for about 1 hour to consolidate the ultra low melting point agarose.
120000 S100T1 cells of a polyoma virus transformed BHK21/c13 cell line, were seeded in 1 ml soft agar medium in Falcon 50 ml centrifuge tubes. […] On the top of the agar layer 0.5 ml fluid medium was added.
Agar cultures were prepared in wells of 24 well Falcon tissue culture plate. […] Insulin (Actrapid, Novo) was added in a concentration of 0.1 i.u./ml to BHK21/c13 cell cultures only.
The cells were all single cells. Each well received 32000 cells (Table 4). Plate: 24 wells Falcon tissue culture plate received a bottom layer composed as in Table 3:
The cells were all single cells.
The wells contained two layers, each of 0.3 ml agar.
The agarose was added to double distilled water and solved by heating in micro oven.

“Also recorded” adds a separate entry of the source.

In the case of `C[S+](C)[O-]` [DMSO], the “Effect on formation of clones at 4.7%” value in experiment [1] (Exp 17) is “inhibited formation of clones, but not completely”. In addition, in experiment [1] (Exp 17), the “Effect on formation of clones at 29.2 μl/700 μl or 4%” value is listed as “inhibited formation of clones, but not completely”. In addition, the “Clonal growth, results read on the day 14” value is recorded as “++” in experiment [1] (Exp 17, a: close to densely seeded cell areas, Low: Colchicine 0.1, Podophyllotoxin 0.3, Etoposide 20, 4-OH—OPB 0.67 μM in wells, DMSO 1.16 μl); “++” in experiment [1] (Exp 17, a: close to densely seeded cell areas, Medium: Colchicine 0.3, Podophyllotoxin 0.9, Etoposide 60, 4-OH—OPB 2 μM in wells, DMSO 6.8 μl); “++” in experiment [1] (Exp 17, b: sparsely seeded areas in the same agar culture, Low: Colchicine 0.1, Podophyllotoxin 0.3, Etoposide 20, 4-OH—OPB 0.67 μM in wells, DMSO 1.16 μl). Besides, the “Concentration up to which growth was approximately unaffected” value in experiment [1] (Exp 17, soft agar cultures of S100T1) was “up to 1%”. The “Growth inhibition at concentrations administered along with the test substances” value in experiment [1] (Exp 19) is “did not show growth inhibition”. The Significance result in experiment [1] (a: close to densely seeded cell areas, High: Colchicine 1, Podophyllotoxin 3, Etoposide 200, 4-OH—OPB 6.7 μM in wells, DMSO 29.2 μl) is reported as “Probably”; in experiment [1] (a: close to densely seeded cell areas, Low: Colchicine 0.1, Podophyllotoxin 0.3, Etoposide 20, 4-OH—OPB 0.67 μM in wells, DMSO 1.16 μl), “No”; in experiment [1] (a: close to densely seeded cell areas, Medium: Colchicine 0.3, Podophyllotoxin 0.9, Etoposide 60, 4-OH—OPB 2 μM in wells, DMSO 6.8 μl) it was “No”; in experiment [1] (b: sparsely seeded areas, High: Colchicine 1, Podophyllotoxin 3, Etoposide 200, 4-OH—OPB 6.7 μM in wells, DMSO 29.2 μl) it was “Yes”; in experiment [1] (b: sparsely seeded areas, Low: Colchicine 0.1, Podophyllotoxin 0.3, Etoposide 20, 4-OH—OPB 0.67 μM in wells, DMSO 1.16 μl) it was “No”; in experiment [1] (b: sparsely seeded areas, Medium: Colchicine 0.3, Podophyllotoxin 0.9, Etoposide 60, 4-OH—OPB 2 μM in wells, DMSO 6.8 μl) it was “No”.

On to `O=C1NC(=O)C(c2ccccc2)(c2ccccc2)N1` [Diphenhydantoin], for which, in experiment [2], the “Effect on clonal growth at 10-100 μM” value is “did not inhibit clonal growth significantly”.

In the case of `O=c1[nH]cc(F)c(=O)[nH]1` [Fluorouracil, reference compound], in experiment [1] (Exp 21, 117000 S100T1 cells/well), the “Effect on clonal growth and toxicity” value was “relatively moderate inhibition of clonal growth and low toxicity independent of dosage”. The Clonal growth result was “++” in experiment [1] (Exp 21, 117000 cells per well, Low concentration (see figure), H: area with high cell density); “++” in experiment [1] (Exp 21, High concentration, H: area with high cell density); “+” in experiment [1] (Exp 21, High concentration, L: area with low cell density); “+” in experiment [1] (Exp 21, Low concentration, L: area with low cell density); “++” in experiment [1] (Exp 21, Medium concentration, H: area with high cell density); “+” in experiment [1] (Exp 21, Medium concentration, L: area with low cell density). In experiment [1] (high concentration), the “Clonal growth, H high density area of cell gradient, High” value was “++”. In addition, in experiment [1] (high concentration), the “Clonal growth, L low density area of cell gradient, High” value was “+”. In experiment [1] (low concentration), the “Clonal growth, H high density area of cell gradient, Low” value is given as “++”. Also, in experiment [1] (low concentration), the “Clonal growth, L low density area of cell gradient, Low” value is given as “+”. Further, the “Clonal growth, H high density area of cell gradient, Medium” value in experiment [1] (medium concentration) is recorded as “++”. The “Clonal growth, L low density area of cell gradient, Medium” value in experiment [1] (medium concentration) was “+”. The “Effect on cell cloning in soft agar” value in experiment [1] is on record as “Rel. moderate inhibition of clonal growth”.

With `COc1c(C)c2c(c(O)c1C/C=C(\C)CCC(=O)O)C(=O)OC2` [Mycophenolic ac], the “Clonal growth after 48 hours incubation” value in experiment [1] (Exp 19, high concentration, H: high cell density part of the gradient) is recorded as “(+)”; in experiment [1] (Exp 19, high concentration, L: low cell density part of the gradient), “(+)”; in experiment [1] (Exp 19, low concentration (exact conc. only in figure), H: high cell density part of the gradient) it was “(+)”; in experiment [1] (Exp 19, low concentration, L: low cell density part of the gradient), “(+)”; in experiment [1] (Exp 19, medium concentration, H: high cell density part of the gradient), “(+)”; in experiment [1] (Exp 19, medium concentration, L: low cell density part of the gradient), “(+)”.

For the compound `COc1c(C)c2c(c(O)c1C/C=C(\C)CCC(=O)O)C(=O)OC2` [Mycophenolic acid, reference compound], in experiment [1] (high concentration), the “Clonal growth, H high density area of cell gradient, High” value is “(+)” and the “Clonal growth, L low density area of cell gradient, High” value is reported as “(+)”. Besides, in experiment [1] (low concentration), the “Clonal growth, H high density area of cell gradient, Low” value was “(+)” and the “Clonal growth, L low density area of cell gradient, Low” value was “(+)”. In addition, in experiment [1] (medium concentration), the “Clonal growth, H high density area of cell gradient, Medium” value is “(+)” and the “Clonal growth, L low density area of cell gradient, Medium” value is “(+)”. Besides, the “Effect on cell cloning in soft agar” value in experiment [1] is “Less growth in both high and low”.

Regarding `CC1=C(CC(=O)O)c2cc(F)ccc2/C1=C\c1ccc([S+](C)[O-])cc1` (stereo not shown) [Sulindac, reference compound], the “Effect on clonal growth of sparsely seeded cells, low dose” value in experiment [1] (Exp 26) is listed as “clone-inducing effect”. Also, the “Effect on clonal growth, high dose” value in experiment [1] (Exp 26, 172800 S100T1 cells/well) is listed as “weak anti-cloning effect on sparsely seeded cells; also recorded: abrogated this effect. It is considered logic”. Besides, the “Resulting clonal growth of treated cultures” value in experiment [1] (H: area with high cell density, High concentration) was “++”; in experiment [1] (H: area with high cell density, Low concentration) it was “++(+)”; in experiment [1] (H: area with high cell density, Medium concentration), “++”; in experiment [1] (L: area with low cell density, High concentration) it was “+”; in experiment [1] (L: area with low cell density, Low concentration), “+++”; in experiment [1] (L: area with low cell density, Medium concentration), “++”. In addition, the “Clonal growth, H high density area of cell gradient, High” value in experiment [1] (high concentration) is reported as “++”. In experiment [1] (high concentration), the “Clonal growth, L low density area of cell gradient, High” value was “+”. Further, the “Clonal growth, H high density area of cell gradient, Low” value in experiment [1] (low concentration) was “++(+)”. Further, the “Clonal growth, L low density area of cell gradient, Low” value in experiment [1] (low concentration) is reported as “+++”. The “Clonal growth, H high density area of cell gradient, Medium” value in experiment [1] (medium concentration) was “++”. For the same compound, the “Clonal growth, L low density area of cell gradient, Medium” value in experiment [1] (medium concentration) was “++”. The “Effect on cell cloning in soft agar” value in experiment [1] is recorded as “Possible clonal stimulation at low”.

On to `CN(Cc1cnc2nc(N)nc(N)c2n1)c1ccc(C(=O)N[C@@H](CCC(=O)O)C(=O)O)cc1` [methotrexate, Methotrexate, reference compound], for which the Effect on growth result in experiment [1] (Exp 23, 180000 S100T1 cells/well) is listed as “did not show significant growth inhibition at all”. The Clonal growth entry is “+(+)” in experiment [1] (Experiment 23, A (area with high cell density), High concentration, 48 hours); “++” in experiment [1] (Experiment 23, A (area with high cell density), Low concentration, 48 hours); “++” in experiment [1] (Experiment 23, A (area with high cell density), Medium concentration, 48 hours); “+” in experiment [1] (Experiment 23, B (area with low cell density), High concentration, 48 hours); “+” in experiment [1] (Experiment 23, B (area with low cell density), Low concentration, 48 hours); “+(+)” in experiment [1] (Experiment 23, B (area with low cell density), Medium concentration, 48 hours).

On to “Somatotropin: growth hormone tested for clonal stimulation”, for which the “Effect on clonal growth” value in experiment [1] (Exp 25, 48 hours incubation) is “seemed to create some large colonies”. Moreover, the Clonal growth result in experiment [1] (Experiment 25, H: area with high cell density, High concentration, after 48 hours incubation) was “++”; in experiment [1] (Experiment 25, H: area with high cell density, Low concentration, after 48 hours incubation), “++(+)”; in experiment [1] (Experiment 25, H: area with high cell density, Medium concentration, after 48 hours incubation), “++(+)”; in experiment [1] (Experiment 25, L: area with low cell density, High concentration, after 48 hours incubation), “++”; in experiment [1] (Experiment 25, L: area with low cell density, Low concentration, after 48 hours incubation) it was “++(+)”; in experiment [1] (Experiment 25, L: area with low cell density, Medium concentration, after 48 hours incubation), “++(+)”. Also, in experiment [1] (high concentration), the “Clonal growth, H high density area of cell gradient, High” value is on record as “++”. Moreover, the “Clonal growth, L low density area of cell gradient, High” value in experiment [1] (high concentration) is “++”. In addition, the “Clonal growth, H high density area of cell gradient, Low” value in experiment [1] (low concentration) was “++(+)”. In addition, the “Clonal growth, L low density area of cell gradient, Low” value in experiment [1] (low concentration) was “++(+)”. In addition, the “Clonal growth, H high density area of cell gradient, Medium” value in experiment [1] (medium concentration) is listed as “++(+)”. The “Clonal growth, L low density area of cell gradient, Medium” value in experiment [1] (medium concentration) was “++(+)”.
